{"source": "PubChem BioAssay AID1963836", "about": "(Molecular Pharmacology Branch, DTP, NCI, 2024);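 note: spheroids exposed to compounds for seven days before readout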", "system": "857933-349-R-J2-PDC complex spheroid viability", "assay": "Anticancer human tumor 857933-349-R-J2-PDC patient-derived colon adenocarcinoma cell line growth inhibition [POLQ]", "conditions": "for IC50: curve of first compound; for viability, T/C: stronger effect = lower value", "procedure,_shortened": "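Complex spheroid viability model combining PDC tumour cells with endothelial (HUVEC) and MSC stromal cells. Novobiocin, ART-558 or RP6685 were tested singly and in combination with standard and investigational anticancer drugs. Each was titrated in half-log steps from near clinical Cmax, or from 10 microM where Cmax was unknown.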", "key": {"[1]": {"conditions": "second compound 0.0316 µM, first compound 0.0316 µM"}, "[2]": {"conditions": "second compound 0.0316 µM, first compound 0.1 µM"}, "[3]": {"conditions": "second compound 0.0316 µM, first compound 0.316 µM"}, "[4]": {"conditions": "second compound 0.0316 µM, first compound 1 µM"}, "[5]": {"conditions": "second compound 0.1 µM, first compound 0.0316 µM"}, "[6]": {"conditions": "second compound 0.1 µM, first compound 0.1 µM"}, "[7]": {"conditions": "second compound 0.1 µM, first compound 0.316 µM"}, "[8]": {"conditions": "second compound 0.1 µM, first compound 1 µM"}, "[9]": {"conditions": "second compound 0.316 µM, first compound 0.0316 µM"}, "[10]": {"conditions": "second compound 0.316 µM, first compound 0.1 µM"}, "[11]": {"conditions": "second compound 0.316 µM, first compound 0.316 µM"}, "[12]": {"conditions": "second compound 0.316 µM, first compound 1 µM"}, "[13]": {"conditions": "second compound 1 µM, first compound 0.0316 µM"}, "[14]": {"conditions": "second compound 1 µM, first compound 0.1 µM"}, "[15]": {"conditions": "second compound 1 µM, first compound 0.316 µM"}, "[16]": {"conditions": "second compound 1 µM, first compound 1 µM"}, "[17]": {"conditions": "second compound 3.16 µM, first compound 0.0316 µM"}, "[18]": {"conditions": "second compound 3.16 µM, first compound 0.1 µM"}, "[19]": {"conditions": "second compound 3.16 µM, first compound 0.316 µM"}, "[20]": {"conditions": "second compound 3.16 µM, first compound 1 µM"}, "[21]": {"conditions": "second compound 10 µM, first compound 0.0316 µM"}, "[22]": {"conditions": "second compound 10 µM, first compound 0.1 µM"}, "[23]": {"conditions": "second compound 10 µM, first compound 0.316 µM"}, "[24]": {"conditions": "second compound 10 µM, first compound 1 µM"}}}
{"smiles": "C=CCn1c(=O)c2cnc(Nc3ccc(N4CCN(C)CC4)cc3)nc2n1-c1cccc(C(C)(C)O)n1", "note": "+ Nc1ccc(C#CCN(C(=O)Cc2ncc(C(F)(F)F)cc2C(F)(F)F)c2ccc(F)cc2)nn1", "values": [{"measurement": "IC50", "setting": "second compound 0.0316 µM", "value": "> 1", "unit": "µM"}, {"measurement": "IC50", "setting": "second compound 0.1 µM", "value": "> 1", "unit": "µM"}, {"measurement": "IC50", "setting": "second compound 0.316 µM", "value": "> 1", "unit": "µM"}, {"measurement": "IC50", "setting": "second compound 1 µM", "value": "> 1", "unit": "µM"}, {"measurement": "IC50", "setting": "second compound 3.16 µM", "value": "> 1", "unit": "µM"}, {"measurement": "IC50", "setting": "second compound 10 µM", "value": "> 1", "unit": "µM"}, {"measurement": "viability, T/C", "setting": "second compound 0.0316 µM, first compound 0.00316 µM", "value": 105, "unit": "%"}, {"measurement": "viability, T/C", "setting": "second compound 0.0316 µM, first compound 0.01 µM", "value": 98.7, "unit": "%"}, {"measurement": "viability, T/C", "setting": "[1]", "value": 91.4, "unit": "%"}, {"measurement": "viability, T/C", "setting": "[2]", "value": 105, "unit": "%"}, {"measurement": "viability, T/C", "setting": "[3]", "value": 88.8, "unit": "%"}, {"measurement": "viability, T/C", "setting": "[4]", "value": 74.7, "unit": "%"}, {"measurement": "viability, T/C", "setting": "second compound 0.1 µM, first compound 0.00316 µM", "value": 105, "unit": "%"}, {"measurement": "viability, T/C", "setting": "second compound 0.1 µM, first compound 0.01 µM", "value": 122, "unit": "%"}, {"measurement": "viability, T/C", "setting": "[5]", "value": 95.4, "unit": "%"}, {"measurement": "viability, T/C", "setting": "[6]", "value": 91.9, "unit": "%"}, {"measurement": "viability, T/C", "setting": "[7]", "value": 88.1, "unit": "%"}, {"measurement": "viability, T/C", "setting": "[8]", "value": 73.8, "unit": "%"}, {"measurement": "viability, T/C", "setting": "second compound 0.316 µM, first compound 0.00316 µM", "value": 60.7, "unit": "%"}, {"measurement": "viability, T/C", "setting": "second compound 0.316 µM, first compound 0.01 µM", "value": 95.8, "unit": "%"}, {"measurement": "viability, T/C", "setting": "[9]", "value": 94, "unit": "%"}, {"measurement": "viability, T/C", "setting": "[10]", "value": 88.7, "unit": "%"}, {"measurement": "viability, T/C", "setting": "[11]", "value": 103, "unit": "%"}, {"measurement": "viability, T/C", "setting": "[12]", "value": 75.4, "unit": "%"}, {"measurement": "viability, T/C", "setting": "second compound 1 µM, first compound 0.00316 µM", "value": 96.5, "unit": "%"}, {"measurement": "viability, T/C", "setting": "second compound 1 µM, first compound 0.01 µM", "value": 93.6, "unit": "%"}, {"measurement": "viability, T/C", "setting": "[13]", "value": 90.6, "unit": "%"}, {"measurement": "viability, T/C", "setting": "[14]", "value": 106, "unit": "%"}, {"measurement": "viability, T/C", "setting": "[15]", "value": 102, "unit": "%"}, {"measurement": "viability, T/C", "setting": "[16]", "value": 74.4, "unit": "%"}, {"measurement": "viability, T/C", "setting": "second compound 3.16 µM, first compound 0.00316 µM", "value": 102, "unit": "%"}, {"measurement": "viability, T/C", "setting": "second compound 3.16 µM, first compound 0.01 µM", "value": 93.2, "unit": "%"}, {"measurement": "viability, T/C", "setting": "[17]", "value": 74.9, "unit": "%"}, {"measurement": "viability, T/C", "setting": "[18]", "value": 101, "unit": "%"}, {"measurement": "viability, T/C", "setting": "[19]", "value": 68.8, "unit": "%"}, {"measurement": "viability, T/C", "setting": "[20]", "value": 75.9, "unit": "%"}, {"measurement": "viability, T/C", "setting": "second compound 10 µM, first compound 0.00316 µM", "value": 113, "unit": "%"}, {"measurement": "viability, T/C", "setting": "second compound 10 µM, first compound 0.01 µM", "value": 106, "unit": "%"}, {"measurement": "viability, T/C", "setting": "[21]", "value": 94, "unit": "%"}, {"measurement": "viability, T/C", "setting": "[22]", "value": 78.7, "unit": "%"}, {"measurement": "viability, T/C", "setting": "[23]", "value": 85.9, "unit": "%"}, {"measurement": "viability, T/C", "setting": "[24]", "value": 66.5, "unit": "%"}]}
{"smiles": "CCCS(=O)(=O)Nc1ccc(F)c(C(=O)c2c[nH]c3ncc(-c4ccc(Cl)cc4)cc23)c1F", "note": "+ Nc1ccc(C#CCN(C(=O)Cc2ncc(C(F)(F)F)cc2C(F)(F)F)c2ccc(F)cc2)nn1", "values": [{"measurement": "IC50", "setting": "second compound 0.0316 µM", "value": 6.17, "unit": "µM"}, {"measurement": "IC50", "setting": "second compound 0.1 µM", "value": 6.22, "unit": "µM"}, {"measurement": "IC50", "setting": "second compound 0.316 µM", "value": 5.99, "unit": "µM"}, {"measurement": "IC50", "setting": "second compound 1 µM", "value": 6.43, "unit": "µM"}, {"measurement": "IC50", "setting": "second compound 3.16 µM", "value": 6.48, "unit": "µM"}, {"measurement": "IC50", "setting": "second compound 10 µM", "value": 6.48, "unit": "µM"}, {"measurement": "viability, T/C", "setting": "[1]", "value": 103, "unit": "%"}, {"measurement": "viability, T/C", "setting": "[2]", "value": 102, "unit": "%"}, {"measurement": "viability, T/C", "setting": "[3]", "value": 102, "unit": "%"}, {"measurement": "viability, T/C", "setting": "[4]", "value": 102, "unit": "%"}, {"measurement": "viability, T/C", "setting": "second compound 0.0316 µM, first compound 3.16 µM", "value": 97.5, "unit": "%"}, {"measurement": "viability, T/C", "setting": "second compound 0.0316 µM, first compound 10 µM", "value": 15.6, "unit": "%"}, {"measurement": "viability, T/C", "setting": "[5]", "value": 93.5, "unit": "%"}, {"measurement": "viability, T/C", "setting": "[6]", "value": 112, "unit": "%"}, {"measurement": "viability, T/C", "setting": "[7]", "value": 88.6, "unit": "%"}, {"measurement": "viability, T/C", "setting": "[8]", "value": 104, "unit": "%"}, {"measurement": "viability, T/C", "setting": "second compound 0.1 µM, first compound 3.16 µM", "value": 102, "unit": "%"}, {"measurement": "viability, T/C", "setting": "second compound 0.1 µM, first compound 10 µM", "value": 14.9, "unit": "%"}, {"measurement": "viability, T/C", "setting": "[9]", "value": 103, "unit": "%"}, {"measurement": "viability, T/C", "setting": "[10]", "value": 89, "unit": "%"}, {"measurement": "viability, T/C", "setting": "[11]", "value": 99.6, "unit": "%"}, {"measurement": "viability, T/C", "setting": "[12]", "value": 91, "unit": "%"}, {"measurement": "viability, T/C", "setting": "second compound 0.316 µM, first compound 3.16 µM", "value": 98.3, "unit": "%"}, {"measurement": "viability, T/C", "setting": "second compound 0.316 µM, first compound 10 µM", "value": 12.9, "unit": "%"}, {"measurement": "viability, T/C", "setting": "[13]", "value": 116, "unit": "%"}, {"measurement": "viability, T/C", "setting": "[14]", "value": 93, "unit": "%"}, {"measurement": "viability, T/C", "setting": "[15]", "value": 82.1, "unit": "%"}, {"measurement": "viability, T/C", "setting": "[16]", "value": 106, "unit": "%"}, {"measurement": "viability, T/C", "setting": "second compound 1 µM, first compound 3.16 µM", "value": 109, "unit": "%"}, {"measurement": "viability, T/C", "setting": "second compound 1 µM, first compound 10 µM", "value": 17.9, "unit": "%"}, {"measurement": "viability, T/C", "setting": "[17]", "value": 77.1, "unit": "%"}, {"measurement": "viability, T/C", "setting": "[18]", "value": 97.2, "unit": "%"}, {"measurement": "viability, T/C", "setting": "[19]", "value": 99.3, "unit": "%"}, {"measurement": "viability, T/C", "setting": "[20]", "value": 96.8, "unit": "%"}, {"measurement": "viability, T/C", "setting": "second compound 3.16 µM, first compound 3.16 µM", "value": 99.6, "unit": "%"}, {"measurement": "viability, T/C", "setting": "second compound 3.16 µM, first compound 10 µM", "value": 23.3, "unit": "%"}, {"measurement": "viability, T/C", "setting": "[21]", "value": 97.7, "unit": "%"}, {"measurement": "viability, T/C", "setting": "[22]", "value": 90.7, "unit": "%"}, {"measurement": "viability, T/C", "setting": "[23]", "value": 93.4, "unit": "%"}, {"measurement": "viability, T/C", "setting": "[24]", "value": 86.5, "unit": "%"}, {"measurement": "viability, T/C", "setting": "second compound 10 µM, first compound 3.16 µM", "value": 92, "unit": "%"}, {"measurement": "viability, T/C", "setting": "second compound 10 µM, first compound 10 µM", "value": 24.6, "unit": "%"}]}
